# Laboratory results: patent US20230051589A1, “COMPOUNDS AND COMPOSITIONS FOR TREATING CONDITIONS ASSOCIATED WITH NLRP ACTIVITY” (Novartis AG, priority 2018, published 2023)
# System: IL-1β production in PMA-differentiated THP-1 cells
# Assay: IL-1β production in PMA-differentiated THP-1 cells stimulated with gramicidin (hTHP-1 assay, 2% fetal bovine serum; Procedures 1-3)
# Assay type: cell-based, human
# Conditions: Homo sapiens, THP-1, Table B3; hTHP-1 assay containing 2% fetal bovine serum, gramicidin stimulation, IL-1β readout; read-out: hTHP-1 IC50
# How it was run: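 PMA-primed THP-1 cells (20 ng/ml PMA, 16-18 h) in RPMI with 2% FBS were pre-incubated with compounds for 1 h, from 100 μM downward in 3-fold steps (0.37% DMSO final), then stimulated with 5 μM gramicidin for 2 h. IL-1β in the supernatant was quantified by HTRF.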
row,Compound,IC50
1,"C[C@](O)(COCCOCCOCCOCCOCc1ccccc1)c1ncc(S(N)(=O)=NC(=O)Nc2c3c(cc4c2CCC4)CCC3)s1 (stereo partly drawn) [Example 761, N-((1,2,3,5,6,7-hexahvdro-s-indacen-4-yl)carbamoyl)-2-((S)-16-hydroxy-1-phenyl-2,5,8,11,14-pentaoxaheptadecan-16-yl)thiazole-5-sulfonimidamide]",200 to 1000 nM
2,"CC(C)(O)c1cccc(S(N)(=O)=NC(=O)Nc2c3c(cc4c2CCC4)CCC3)n1 (stereo not shown) [Example 763, N′-((1,2,3,5,6,7-hexahydro-s-indacen-4-yl)carbamoyl)-6-(2-hydroxypropan-2-yl)pyridine-2-sulfonimidamide]",1000 to 5000 nM
3,"CN(C)CC(C)(C)c1ccc(S(N)(=O)=NC(=O)Nc2c3c(cc4c2CCC4)CCC3)cc1 (stereo not shown) [Example 764, 4-(1-(Dimethylamino)-2-methylpropan-2-yl)-N′-((1,2,3,5,6,7-hexahydro-s-indacen-4-yl)carbamoyl)benzenesulfonimidamide]",1000 to 5000 nM
4,"CC(C)c1cnc(S(N)(=O)=NC(=O)Nc2c3c(cc4c2CCC4)CCC3)c(F)c1 (stereo not shown) [Example 765, 3-Fluoro-N'-((1,2,3,5,6,7-hexahydro-s-indacen-4-yl)carbamoyl)-5-isopropylpyridine-2-sulfonimidamide]",1000 to 5000 nM
5,"CC(C)(O)c1sc(S(N)(=O)=NC(=O)Nc2c3c(cc4c2CCC4)CCC3)nc1CO (stereo not shown) [Example 767, N′-((1,2,3,5,6,7-hexahydro-s-indacen-4-yl)carbamoyl)-4-(hydroxymethyl)-5-(2-hydroxypropan-2-yl)thiazole-2-sulfonimidamide]",40 to 200 nM
6,"CC1c2c(csc2S(N)(=O)=NC(=O)Nc2c3c(cc4c2CCC4)CCC3)CN1C (stereo not shown) [Example 768, N′-((1,2,3,5,6,7-hexahydro-s-indacen-4-yl)carbamoyl)-5,6-dimethyl-5,6-dihydro-4H-thieno[3,4-c]pyrrole-1-sulfonimidamide]",200 to 1000 nM
7,"CN1CCc2sc(S(N)(=O)=NC(=O)Nc3c4c(cc5c3CC5)CCC4)c(F)c2C1 (stereo not shown) [Example 769, 3-Fluoro-5-methyl-N′-((2,4,5,6-tetrahydro-1H-cyclobuta[f]inden-3-yl)carbamoyl)-4,5,6,7-tetrahydrothieno[3,2-c]pyridine-2-sulfonimidamide]",40 to 200 nM
8,"NS(=O)(=NC(=O)Nc1c2c(cc3c1CC3)CCC2)c1sc2c(c1F)COCC2 (stereo not shown) [Example 770, 3-Fluoro-N′-((2,4,5,6-tetrahydro-1H-cyclobuta[f]inden-3-yl)caibamoyl)-6,7-dihydro-4H-thieno[3,2-c]pyran-2-sulfonimidamide]",200 to 1000 nM
9,"CC(C)(CO)c1ncc(S(N)(=O)=NC(=O)Nc2c3c(c(C#N)c4c2CCC4)CCC3)s1 (stereo not shown) [Example 772, N′-((8-cyano-1,2,3,5,6,7-hexahydro-s-indacen-4-yl)carbamoyl)-2-(1-hydroxy-2-methylpropan-2-yl)thiazole-5-sulfonimidamide]",40 to 200 nM
10,"NS(=O)(=NC(=O)Nc1c2c(cc3c1CC3)CCC2)c1cc2c(s1)CCN(CC(F)F)C2 (stereo not shown) [Example 773, 5-(2,2-Difluoroethyl)-N′-((2,4,5,6-tetrahydro-1H-cyclobuta[f]inden-3-yl)carbamoyl)-4,5,6,7-tetrahydrothieno[3,2-c]pyridine-2-sulfonimidamide]",1000 to 5000 nM
11,"COC1CCc2c(csc2S(N)(=O)=NC(=O)Nc2c3c(cc4c2CCC4)CCC3)C1 (stereo not shown) [Example 774, N′-((1,2,3,5,6,7-hexahydro-s-indacen-4-yl)carbamoyl)-5-methoxy-4,5,6,7-tetrahydrobenzo[c]thiophene-1-sulfonimidamide]",1000 to 5000 nM
12,"COC1CCc2csc(S(N)(=O)=NC(=O)Nc3c4c(cc5c3CCC5)CCC4)c2C1 (stereo not shown) [Example 775, N′-((1,2,3,5,6,7-hexahydro-s-indacen-4-yl)carbamoyl)-6-methoxy-4,5,6,7-tetrahydrobenzo[c]thiophene-1-sulfonimidamide]",1000 to 5000 nM
13,"CNCc1csc(S(N)(=O)=NC(=O)Nc2c3c(cc4c2CC4)CCC3)c1F (stereo not shown) [Example 777, 3-Fluoro-4-((methylamino)methyl)-N′-((2,4,5,6-tetrahydro-1H-cyclobuta[f]inden-3-yl)carbamoyl)thiophene-2-sulfonimidamide]",40 to 200 nM
14,"CNC1CCc2cc(S(N)(=O)=NC(=O)Nc3c4c(cc5c3CCC5)CCC4)sc2C1 (stereo not shown) [Example 778, N′-((1,2,3,5,6,7-hexahydro-s-indacen-4-yl)carbamoyl)-6-(methylamino)-4,5,6,7-tetrahydrobenzo[b]thiophene-2-sulfonimidamide]",200 to 1000 nM
15,"CNCc1csc(S(N)(=O)=NC(=O)Nc2c3c(cc4c2CCC4)CCC3)c1F (stereo not shown) [Example 779, 3-Fluoro-N′-((1,2,3,5,6,7-hexahydro-s-indacen-4-yl)carbamoyl)-4-((methylamino)methyl)thiophene-2-sulfonimidamide]",40 to 200 nM
16,"NS(=O)(=NC(=O)Nc1c2c(cc3c1CCC3)CCC2)c1cnc(C(O)(COCCOCc2ccccc2)COCCOCc2ccccc2)s1 (stereo not shown) [Example 780, N′-((1,2,3,5,6,7-hexahydro-s-indacen-4-yl)carbamoyl)-2-(7-hydroxy-1,13-diphenyl-2,5,9,12-tetraoxatridecan-7-yl)thiazole-5-sulfonimidamide]",1000 to 5000 nM

# The next lines start with the values.
row,IC50,Compound
1,40 to 200 nM,"NS(=O)(=NC(=O)Nc1c2c(cc3c1CC3)CCC2)c1cc2c(s1)CCNC2C(F)F (stereo not shown) [Example 781, 4-(Difluoromethyl)-N′-((2,4,5,6-tetrahydro-1H-cyclobuta[f]inden-3-yl)carbamoyl)-4,5,6,7-tetrahydrothieno[3,2-c]pyridine-2-sulfonimidamide]"
2,8 to 40 nM,"COc1cc(-c2ccc3c(c2NC(=O)N=[S@@](N)(=O)c2cnc(C(C)(C)O)s2)CCC3)ccn1 [Example 784, (R)-2-(2-hydroxypropan-2-yl)-N′-((5-(2-methoxypyridin-4-yl)-2,3-dihydro-1H-inden-4-yl)carbamoyl)thiazole-5-sulfonimidamide]"
3,40 to 200 nM,"NS(=O)(=NC(=O)Nc1c2c(cc3c1CC3)CCC2)c1nn(C(F)F)cc1F (stereo not shown) [compound 734, 1-(Difluoromethyl)-4-fluoro-N′-((2,4,5,6-tetrahydro-1H-cyclobuta[f]inden-3-yl)carbamoyl)-1H-pyrazole-3-sulfonimidamide]"
4,1000 to 5000 nM,"CC(C)n1nc(S(N)(=O)=NC(=O)Nc2c3c(cc4c2C(=O)CC4)CCC3)cc1CO (stereo not shown) [compound 739, 5-(Hydroxymethyl)-1-isopropyl-N′-((3-oxo-1,2,3,5,6,7-hexahydro-s-indacen-4-yl)carbamoyl)-1H-pyrazole-3-sulfonimidamide]"
5,200 to 1000 nM,C#CCCC1(CCC(=O)N(C)Cc2ccc([S@@](N)(=O)=NC(=O)Nc3c4c(cc5c3CCC5)CCC4)cc2)N=N1 [compound 771]
6,5000 to 30000 nM,"CN1CCC(c2ccc(S(N)(=O)=NC(=O)Nc3c4c(cc5c3CCC5)CCC4)c(F)c2)C1 (stereo not shown) [compound 776, 2-Fluoro-N′-((1,2,3,5,6,7-hexahydro-s-indacen-4-yl)carbamoyl)-4-(1-methylpyrrolidin-3-yl)benzenesulfonimidamide]"

# Same assay, conditions: Homo sapiens, THP-1, hTHP-1 assay containing 2% fetal bovine serum, Table B2, class symbols; read-out: IC50
row,IC50,Compound
1,1000 to 5000 nM,"CC(OC(F)F)c1ccc(S(N)(=O)=NC(=O)Nc2c3c(cc4c2CCC4)CCC3)cc1 (stereo not shown) [compound 452, 4-(1-(Difluoromethoxy)ethyl)-N′-((1,2,3,5,6,7-hexahydro-s-indacen-4-yl)carbamoyl)benzenesulfonimidamide]"
2,1000 to 5000 nM,"CNCC(C)(C)c1ccc(S(N)(=O)=NC(=O)Nc2c3c(cc4c2CCC4)CCC3)cc1 (stereo not shown) [compound 496, N′-((1,2,3,5,6,7-hexahydro-s-indacen-4-yl)carbamoyl)-4-(2-methyl-1-(methylamino)propan-2-yl)benzenesulfonimidamide]"
3,40 to 200 nM,"CNCc1csc(S(N)(=O)=NC(=O)Nc2c3c(cc4c2CCC4)CCC3)c1 (stereo not shown) [compound 672, N′-((1,2,3,5,6,7-hexahydro-s-indacen-4-yl)carbamoyl)-4-((methylamino)methyl)thiophene-2-sulfonimidamide]"

# Same assay, conditions: Table B3; hTHP-1 assay containing 2% fetal bovine serum, gramicidin stimulation, IL-1β readout; read-out: hTHP-1 IC50
row,IC50,Compound
1,1000 to 5000 nM,"CN1CCCC(c2ccc(S(N)(=O)=NC(=O)Nc3c4c(cc5c3CC5)CCC4)c(F)c2)C1 (stereo not shown) [Example 766, 2-Fluoro-4-(1-methylpiperidin-3-yl)-N′-((2,4,5,6-tetrahydro-1H-cyclobuta[f]inden-3-yl)carbamoyl)benzenesulfonimidamide]"
2,1000 to 5000 nM,"CC(NC1CCC1)c1ccc(S(N)(=O)=NC(=O)Nc2c3c(cc4c2CC4)CCC3)c(F)c1 (stereo not shown) [Example 846, (R/S, S)-4-(1-(cyclobutylamino)ethyl)-2-fIuoro-N′-((2,4,5,6-tetrahydro-1H-cyclobuta[f]inden-3-yl)carbamoyl)benzenesulfonimidamide]"
3,200 to 1000 nM,"NS(=O)(=NC(=O)Nc1c2c(cc3c1CCC3)CCC2)c1ccc(C2CCN2)cc1 (stereo not shown) [Example 863, (S/R, R)-4-(azetidin-2-yl)-N′-((1,2,3,5,6,7-hexahydro-s-indacen-4-yl)carbamoyl)benzenesulfonimidamide]"

# Same assay, conditions: hTHP-1 assay containing 2% fetal bovine serum, Table B2, class symbols; read-out: IC50
row,IC50,Compound
1,40 to 200 nM,"(S)- and (R)-3-Fluoro-5-((methylamino)methyl)-N′-((2,4,5,6-tetrahydro-1H-cyclobuta[f]inden-3-yl)carbamoyl)thiophene-2-sulfonimidamide [Example 670]"
2,1000 to 5000 nM,"(S)- and (R)-3-Fluoro-5-((methylamino)methyl)-N′-((2,4,5,6-tetrahydro-1H-cyclobuta[f]inden-3-yl)carbamoyl)thiophene-2-sulfonimidamide [Example 671]"
3,40 to 200 nM,"N-(amino((R)-6-methoxy-6,7- dihydro-5H-pyrazolo[5,1- b][1,3]oxazin-3-yl)(oxo)-9,6- sulfaneylidene)-1,2,3,5,6,7- hexahydro-s-indacene-4-carboxamide [Example 472]"
